Test results as given in ChEMBL document CHEMBL1201862, “PubChem BioAssay data set” (2004).
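Exposure lasted 48 hours, with cells grown in 96-well plates and compounds tested at five concentrations. The concentration for 50% growth inhibition is given as GI50.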 Calls of active or inactive are those of the source. Cut-off read from the data, not from the text of the source: active = GI50 up to about 1.1 µM and inactive = higher.

Columns and labels:
Test in all cases: inhibition of tumour cell growth, NCI panel, 48 h
HOP-92 = system: HOP-92
LOX IMVI = system: LOX IMVI
NCI/ADR-RES = system: NCI/ADR-RES
DLD-1 = system: DLD-1
KM-20L2 = system: KM-20L2
CAKI-1 = system: CAKI-1
RXF 393 = system: RXF 393
MCF7 = system: MCF7
SNB-78 = system: SNB-78
HOP-18 = system: HOP-18
HOP-62 = system: HOP-62
M19-MEL = system: M19-MEL
OVCAR-4 = system: OVCAR-4

Measured: GI50

Cc1[nH]c(=O)[nH]c(=O)c1/C=C/C(=O)NC(CO)C[S+]([O-])Cc1ccccc1 (stereo not drawn)
inactive: HOP-92 > 190 µM | LOX IMVI > 300 µM | NCI/ADR-RES > 300 µM | DLD-1 > 300 µM | KM-20L2 > 300 µM | CAKI-1 > 300 µM | RXF 393 > 300 µM | MCF7 > 300 µM | SNB-78 > 300 µM | HOP-18 > 289 µM | HOP-62 > 300 µM | M19-MEL > 300 µM

N/C(=N\O)N/N=C\c1c(O)cc(O)cc1O
inactive: HOP-92 54.8 µM | LOX IMVI 60.8 µM | NCI/ADR-RES 79.6 µM | DLD-1 > 82.8 µM | KM-20L2 > 100 µM | CAKI-1 > 100 µM | RXF 393 > 100 µM | MCF7 36.4 µM | SNB-78 > 100 µM | HOP-18 > 64 µM | OVCAR-4 > 68.4 µM | HOP-62 > 87.9 µM | M19-MEL > 71.8 µM

COc1cc(-c2ccc(/N=N/c3ccc4c(S(=O)(=O)O)cc(S(=O)(=O)O)c(N)c4c3O)c(OC)c2)ccc1/N=N/c1ccc2c(S(=O)(=O)O)cc(S(=O)(=O)O)c(N)c2c1O
inactive: HOP-92 > 100 µM | LOX IMVI > 100 µM | NCI/ADR-RES > 100 µM | DLD-1 > 100 µM | KM-20L2 > 100 µM | RXF 393 > 100 µM | MCF7 > 100 µM | SNB-78 > 100 µM | HOP-18 > 44.3 µM | OVCAR-4 > 100 µM | HOP-62 > 100 µM | M19-MEL > 100 µM

C=CCn1c2ccccc2c2c(C)c3cnccc3c(C)c21
inactive: HOP-92 1.92 µM | LOX IMVI 6.82 µM | NCI/ADR-RES 4.91 µM | DLD-1 7.08 µM | KM-20L2 6.75 µM | CAKI-1 2.06 µM | RXF 393 4.27 µM | MCF7 5.52 µM | SNB-78 22.3 µM | HOP-18 > 125 µM | OVCAR-4 8.97 µM | HOP-62 9.98 µM | M19-MEL 9.23 µM

CC1=C2C(O)C(C(C)C(=O)NCC(C)C)CCC2(C)C=CC1=O (stereo not drawn)
inactive: HOP-92 > 100 µM | LOX IMVI > 100 µM | NCI/ADR-RES > 100 µM | DLD-1 > 100 µM | KM-20L2 > 100 µM | CAKI-1 > 100 µM | RXF 393 > 100 µM | MCF7 > 100 µM | SNB-78 > 100 µM | HOP-18 > 100 µM | OVCAR-4 > 100 µM | HOP-62 > 100 µM | M19-MEL > 100 µM
